# Test results: article PMC12300041, “Tricyclic Isatin Derivatives as Anti-Inflammatory Compounds with High Kinase Binding Affinity” (Molecules, 2025)
# Columns and labels:
# Assay in all cases: KINOMEscan
# Assay type in all cases: binding, human
# Details in all cases: 10 μM
# [1] = system: FLT3 (ITD, D835V)
# Protocol: (§1) Kinase profiling was performed by KINOMEscan (Eurofins Pharma Discovery, San Diego, CA, USA), using a panel of 423 protein kinases, as described previously. Compounds were submitted for dissociation constant (Kd) determination toward several target kinases using KINOMEscan. […] Binding reactions were performed at room temperature for 1 h, and the fraction of kinase not bound to the test compound was determined by capture with an immobilized affinity ligand and quantified by quantitative polymerase chain reaction. The primary screening at fixed concentrations of the compound was performed in duplicate. For dissociation constant Kd determination, a 12-point half-log dilution series (a maximum concentration of 33 μM) was used.
# [2] = system: EGFR (L747-T751 del, Sins)
# Protocol: as §1
# [3] = system: FLT3 (ITD)
# Protocol: as §1
# [4] = system: FLT3 (ITD, F691L)
# Protocol: as §1
compound,measurement,setting,value
"O=C1Nc2c(cc([N+](=O)[O-])c3c2CCCC3)C1=NO [Compound 5d, 3-(Hydroxyimino)-5-nitro-1,3,6,7,8,9-hexahydro-2H-benzo[g]indol-2-one]",Inhib. (%),[1],65%
same,Inhib. (%),[2],22%
same,Inhib. (%),[3],29%
same,Inhib. (%),[4],66%
